Measured values taken from ChEMBL document CHEMBL5512645, “A novel antimicrobial peptide with broad-spectrum and exceptional stability derived from the natural peptide Brevicidine” (Eur J Med Chem, 2024).
Converted amounts (≈) assume the structure as drawn. The source made the active and inactive calls. The calls are words filed in the database; no cut-off is given here. Bridge positions count the residues as written; N and C are the ends. Square brackets hold non-standard residues; d marks the D form. Peptide text beside a SMILES is read from it. * marks the point of attachment. ξ: configuration not given here. Hexanoyl(4ξ-Me) = CCC(C)CCC(=O)*; dOrn = NCCC[C@@H](N)C(=O)O; Orn = NCCC[C@H](N)C(=O)O

How the values were obtained:
Escherichia coli = assay: Antibacterial activity against Escherichia coli ATCC 25922 incubated for 18 to 24 hrs by broth microdilution method; type: functional; details: time 18-24 hrs
Klebsiella pneumoniae = assay: Antibacterial activity against Klebsiella pneumoniae ATCC 700603 incubated for 18 to 24 hrs by broth microdilution method; type: functional; details: time 18-24 hrs
Pseudomonas aeruginosa [1] = assay: Antibacterial activity against Pseudomonas aeruginosa ATCC 27853 incubated for 18 to 24 hrs by broth microdilution method; type: functional; details: time 18-24 hrs
Acinetobacter baumannii = assay: Antibacterial activity against Acinetobacter baumannii ATCC 19606 incubated for 18 to 24 hrs by broth microdilution method; type: functional; details: time 18-24 hrs
Staphylococcus aureus [2] = assay: Antibacterial activity against Staphylococcus aureus ATCC 25923 incubated for 18 to 24 hrs by broth microdilution method; type: functional; details: time 18-24 hrs
Bacillus subtilis = assay: Antibacterial activity against Bacillus subtilis ATCC 23857 incubated for 18 to 24 hrs by broth microdilution method; type: functional; details: time 18-24 hrs
[3] = tested on: Staphylococcus epidermidis; assay: Antibacterial activity against Staphylococcus epidermidis ATCC 12228 incubated for 18 to 24 hrs by broth microdilution method; type: functional; details: time 18-24 hrs
Enterococcus faecalis = assay: Antibacterial activity against Enterococcus faecalis ATCC 29212 incubated for 18 to 24 hrs by broth microdilution method; type: functional; details: time 18-24 hrs
[4] = Cytotoxicity against human HK-2 cells measured after 24 hrs MTT assay; type: toxicity, cell-based
[5] = Half life in mouse serum by RP-HPLC analysis; type: ADME, cell-free
Pseudomonas aeruginosa [6] = assay: Antibacterial activity against Pseudomonas aeruginosa ATCC 27853 pretreated with 2.5% mouse serum followed by compound addition and measured after 1 hr by broth microdilution method (reference value: 2 microM); type: functional
Pseudomonas aeruginosa [7] = assay: Antibacterial activity against Pseudomonas aeruginosa ATCC 27853 pretreated with 5% mouse serum followed by compound addition and measured after 1 hr by broth microdilution method (reference value: 2 microM); type: functional
Pseudomonas aeruginosa [8] = assay: Antibacterial activity against Pseudomonas aeruginosa ATCC 27853 pretreated with 10% mouse serum followed by compound addition and measured after 1 hr by broth microdilution method (reference value: 2 microM); type: functional
Pseudomonas aeruginosa [9] = assay: Antibacterial activity against Pseudomonas aeruginosa ATCC 27853 pretreated with 20% mouse serum followed by compound addition and measured after 1 hr by broth microdilution method (reference value: 2 microM); type: functional
Pseudomonas aeruginosa [10] = assay: Antibacterial activity against Pseudomonas aeruginosa ATCC 27853 pretreated with 2.5% mouse serum followed by compound addition and measured after 6 hrs by broth microdilution method (reference value: 2 microM); type: functional
Pseudomonas aeruginosa [11] = assay: Antibacterial activity against Pseudomonas aeruginosa ATCC 27853 pretreated with 5% mouse serum followed by compound addition and measured after 6 hrs by broth microdilution method (reference value: 2 microM); type: functional
Pseudomonas aeruginosa [12] = assay: Antibacterial activity against Pseudomonas aeruginosa ATCC 27853 pretreated with 10% mouse serum followed by compound addition and measured after 6 hrs by broth microdilution method (reference value: 2 microM); type: functional
Pseudomonas aeruginosa [13] = assay: Antibacterial activity against Pseudomonas aeruginosa ATCC 27853 pretreated with 20% mouse serum followed by compound addition and measured after 6 hrs by broth microdilution method (reference value: 2 microM); type: functional
Pseudomonas aeruginosa [14] = assay: Antibacterial activity against Pseudomonas aeruginosa ATCC 27853 pretreated with Na-cl followed by compound addition and measured after 2 hrs by broth microdilution method (reference value: 2 microM); type: functional
Pseudomonas aeruginosa [15] = assay: Antibacterial activity against Pseudomonas aeruginosa ATCC 27853 pretreated with KCl followed by compound addition and measured after 2 hrs by broth microdilution method (reference value: 2 microM); type: functional
Pseudomonas aeruginosa [16] = assay: Antibacterial activity against Pseudomonas aeruginosa ATCC 27853 pretreated with Mgcl2 followed by compound addition and measured after 2 hrs by broth microdilution method (reference value: 2 microM); type: functional
Pseudomonas aeruginosa [17] = assay: Antibacterial activity against Pseudomonas aeruginosa ATCC 27853 pretreated with FeCl3 followed by compound addition and measured after 2 hrs by broth microdilution method (reference value: 2 microM); type: functional
Pseudomonas aeruginosa [18] = assay: Antibacterial activity against Pseudomonas aeruginosa ATCC 27853 pretreated with Zncl2 followed by compound addition and measured after 2 hrs by broth microdilution method (reference value: 2 microM); type: functional
Pseudomonas aeruginosa [19] = assay: Antibacterial activity against Pseudomonas aeruginosa ATCC 27853 assessed as reduction in survival bacterial growth in presence of chymotrypsin measured after 8 hrs by absorbance based analysis; type: functional, organism-based
Pseudomonas aeruginosa [20] = assay: Antibacterial activity against Pseudomonas aeruginosa ATCC 27853 assessed as reduction in survival bacterial growth in presence of trypsin measured after 8 hrs by absorbance based analysis; type: functional, organism-based
Pseudomonas aeruginosa [21] = assay: Antibiofilm activity against Pseudomonas aeruginosa ATCC 27853 at 1/2 to 4 times MIC measured after 24 hrs by crystal violet staining based analysis; type: functional, organism-based
Staphylococcus aureus [22] = assay: Antibiofilm activity against Staphylococcus aureus ATCC 25923 at 1/2 to 4 times MIC measured after 24 hrs by crystal violet staining based analysis; type: functional, organism-based
Pseudomonas aeruginosa [23] = assay: Antibacterial activity against Pseudomonas aeruginosa ATCC 27853 at sub-MIC measured after 20 days; type: functional, organism-based; details: time 20.0 day
Pseudomonas aeruginosa [24] = assay: Antibacterial activity against Pseudomonas aeruginosa ATCC 27853 at sub-MIC measured after 20 days in presence of rifampicin; type: functional, organism-based; details: time 20.0 day
Pseudomonas aeruginosa [25] = assay: Antibacterial activity against Pseudomonas aeruginosa ATCC 27853 at sub-MIC measured after 20 days in presence of gentamicin; type: functional, organism-based; details: time 20.0 day
Staphylococcus aureus [26] = assay: Antibacterial activity against Staphylococcus aureus ATCC 25923 at sub-MIC measured after 20 days in presence of rifampicin; type: functional, organism-based; details: time 20.0 day
Staphylococcus aureus [27] = assay: Antibacterial activity against Staphylococcus aureus ATCC 25923 at sub-MIC measured after 20 days in presence of gentamicin; type: functional, organism-based; details: time 20.0 day
Staphylococcus aureus [28] = assay: In vivo antibacterial activity against Staphylococcus aureus ATCC 25923 infected in BALB/c mouse model assessed as reduction in bacterial count in spleen at 10 mg/kg, ip preadministered with compound for 1 hr followed by bacterial infection and measured after 6 hrs […]; type: functional, organism-based; details: time 7.0 hrs
Staphylococcus aureus [29] = assay: In vivo antibacterial activity against Staphylococcus aureus ATCC 25923 infected in BALB/c mouse model assessed as reduction in bacterial count in lung at 10 mg/kg, ip preadministered with compound for 1 hr followed by bacterial infection and measured after 6 hrs […]; type: functional, organism-based; details: time 7.0 hrs
Staphylococcus aureus [30] = assay: In vivo antibacterial activity against Staphylococcus aureus ATCC 25923 infected in BALB/c mouse model assessed as amelioration of pathological changes in liver at 5 to 10 mg/kg, ip measured after 7 hrs by H and E staining based analysis; type: functional, organism-based; details: dose 5-10 mg/kg
Pseudomonas aeruginosa [31] = assay: Antibacterial activity against Pseudomonas aeruginosa ATCC 27853 assessed as fold increase in MIC pretreated with NaCl followed by compound addition and measured after 2 hrs by broth microdilution method; type: functional
Pseudomonas aeruginosa [32] = assay: Antibacterial activity against Pseudomonas aeruginosa ATCC 27853 assessed as fold increase in MIC pretreated with FeCl3 followed by compound addition and measured after 2 hrs by broth microdilution method; type: functional
Pseudomonas aeruginosa [33] = assay: Induction of morphological changes in Pseudomonas aeruginosa ATCC 27853 assessed as leakage of cellular content at 2 times MIC measured after 0.5 hrs by SEM based analysis; type: functional, organism-based
Pseudomonas aeruginosa [34] = assay: Induction of morphological changes in Pseudomonas aeruginosa ATCC 27853 assessed as membrane rupture at 2 times MIC measured after 2 hrs by SEM based analysis; type: functional, organism-based

Row | Molecule | MIC (Escherichia coli) [µM] | MIC (Klebsiella pneumoniae) [µM] | MIC (Pseudomonas aeruginosa [1]) [µM] | MIC (Acinetobacter baumannii) [µM] | MIC (Staphylococcus aureus [2]) [µM] | MIC (Bacillus subtilis) [µM] | MIC [3] [µM] | MIC (Enterococcus faecalis) [µM] | MIC (Pseudomonas aeruginosa [6]) [µM] | MIC (Pseudomonas aeruginosa [7]) [µM] | MIC (Pseudomonas aeruginosa [8]) [µM] | MIC (Pseudomonas aeruginosa [9]) [µM] | MIC (Pseudomonas aeruginosa [10]) [µM] | MIC (Pseudomonas aeruginosa [11]) [µM] | MIC (Pseudomonas aeruginosa [12]) [µM] | MIC (Pseudomonas aeruginosa [13]) [µM] | MIC (Pseudomonas aeruginosa [14]) [µM] | MIC (Pseudomonas aeruginosa [15]) [µM] | MIC (Pseudomonas aeruginosa [16]) [µM] | MIC (Pseudomonas aeruginosa [17]) [µM] | also measured
1 | CCCCCCCCCC(=O)N[C@H](CCCN)C(=O)N[C@H](Cc1ccc(O)cc1)C(=O)N[C@H](Cc1c[nH]c2ccccc12)C(=O)N[C@H](CCCN)C(=O)N[C@@H](CCCN)C(=O)NCC(=O)N[C@H](CCCN)C(=O)N[C@@H](Cc1c[nH]c2ccccc12)C(=O)N[C@H](C(=O)N[C@H](C(=O)NCC(=O)N[C@@H](CO)C(=O)O)[C@@H](C)CC)[C@@H](C)O | 4 (≈ 6.32 µg/mL) | 4 (≈ 6.32 µg/mL) | 2 (≈ 3.16 µg/mL) | 4 (≈ 6.32 µg/mL) | 8 (≈ 12.6 µg/mL) | 2 (≈ 3.16 µg/mL) | 4 (≈ 6.32 µg/mL) | 16 (≈ 25.3 µg/mL) | 2 (≈ 3.16 µg/mL) | 2 (≈ 3.16 µg/mL) | 2 (≈ 3.16 µg/mL) | 4 (≈ 6.32 µg/mL) | 2 (≈ 3.16 µg/mL) | 2 (≈ 3.16 µg/mL) | 4 (≈ 6.32 µg/mL) | 8 (≈ 12.6 µg/mL) | 2 (≈ 3.16 µg/mL) | 2 (≈ 3.16 µg/mL) | 2 (≈ 3.16 µg/mL) | < 1 | IC50 at 24 h [4]: 21.1 µM; half-life [5]: 41 h; MIC (Pseudomonas aeruginosa [18]): 2 µM (≈ 3.16 µg/mL); Activity (Pseudomonas aeruginosa [19]): Active; Activity (Pseudomonas aeruginosa [20]): Active; Activity (Pseudomonas aeruginosa [21]): Active; Activity (Staphylococcus aureus [22]): Active; Activity (Pseudomonas aeruginosa [23]): Active; Activity (Pseudomonas aeruginosa [24]): Active; Activity (Pseudomonas aeruginosa [25]): Active; Activity (Staphylococcus aureus [26]): Active; Activity (Staphylococcus aureus [27]): Active; Activity (Staphylococcus aureus [28]): Active; Activity (Staphylococcus aureus [29]): Active; Activity (Staphylococcus aureus [30]): Active; fold change (FC) (Pseudomonas aeruginosa [31]): 8; fold change (FC) (Pseudomonas aeruginosa [32]): 8
2 | CCC(C)CCC(=O)N[C@H](CC(N)=O)C(=O)N[C@H](Cc1ccc(O)cc1)C(=O)N[C@H](Cc1c[nH]c2ccccc12)C(=O)N[C@H](CCCN)C(=O)N[C@@H](CCCN)C(=O)NCC(=O)N[C@H](CCCN)C(=O)N[C@@H](Cc1c[nH]c2ccccc12)C(=O)N[C@@H]1C(=O)N[C@@H]([C@@H](C)CC)C(=O)NCC(=O)N[C@@H](CO)C(=O)O[C@@H]1C (stereo not given in full) ({Hexanoyl(4ξ-Me)}-[dN][dY][dW][dOrn][Orn]G[dOrn]WTIGS; ester 9-C) | 2 (≈ 3.04 µg/mL) | 2 (≈ 3.04 µg/mL) | 2 (≈ 3.04 µg/mL) | 8 (≈ 12.2 µg/mL) | 64 (≈ 97.3 µg/mL) | 8 (≈ 12.2 µg/mL) | 32 (≈ 48.6 µg/mL) | 64 (≈ 97.3 µg/mL) | 2 (≈ 3.04 µg/mL) | 2 (≈ 3.04 µg/mL) | 4 (≈ 6.08 µg/mL) | 4 (≈ 6.08 µg/mL) | 8 (≈ 12.2 µg/mL) | 8 (≈ 12.2 µg/mL) | 8 (≈ 12.2 µg/mL) | 16 (≈ 24.3 µg/mL) | 4 (≈ 6.08 µg/mL) | 8 (≈ 12.2 µg/mL) | 8 (≈ 12.2 µg/mL) | 4 (≈ 6.08 µg/mL) | IC50 at 24 h [4]: 36.5 µM; half-life [5]: 4.47 h; MIC (Pseudomonas aeruginosa [18]): 4 µM (≈ 6.08 µg/mL); Activity (Pseudomonas aeruginosa [19]): Active; Activity (Pseudomonas aeruginosa [20]): Active; Activity (Pseudomonas aeruginosa [21]): Active; Activity (Staphylococcus aureus [22]): Active; Activity (Pseudomonas aeruginosa [23]): Active; Activity (Pseudomonas aeruginosa [24]): Active; Activity (Pseudomonas aeruginosa [25]): Active; Activity (Staphylococcus aureus [26]): Active; Activity (Staphylococcus aureus [27]): Active; Activity (Pseudomonas aeruginosa [33]): Active; Activity (Pseudomonas aeruginosa [34]): Active; fold change (FC) (Pseudomonas aeruginosa [31]): 2; fold change (FC) (Pseudomonas aeruginosa [32]): 2
3 | POLYMYXIN B | 2 | 4 | 2 | 1 | 16 | 8 | 32 | 128 | 2 | 2 | 2 | 2 | 2 | 2 | 4 | 4 | < 1 | < 1 | 2 | < 1 | MIC (Pseudomonas aeruginosa [18]): < 1 µM; Activity (Pseudomonas aeruginosa [21]): Active; Activity (Staphylococcus aureus [22]): Active; Activity (Pseudomonas aeruginosa [24]): Active; Activity (Pseudomonas aeruginosa [25]): Active; Activity (Staphylococcus aureus [26]): Active; Activity (Staphylococcus aureus [27]): Active; Activity (Pseudomonas aeruginosa [33]): Active; Activity (Pseudomonas aeruginosa [34]): Active; Activity (Staphylococcus aureus [28]): Active; Activity (Staphylococcus aureus [29]): Active; Activity (Staphylococcus aureus [30]): Active
